The values that follow come from PubChem BioAssay AID1996.

Values after ≈ are worked out from the molar mass of the structure shown.

The conditions of this data set: buffer; pH 7.4; 200.0 µM.
With `COc1cccc(N=Cc2c(O)n(Cc3ccco3)c(=O)[nH]c2=O)c1`, the kinetic solubility (as a rule, the concentration staying in solution when a stock, usually in DMSO, is diluted into the medium) is 6.1 µg/mL (≈ 17.9 µM). Consider `COc1ccc(Oc2cccc(Cl)c2CNC(=O)CCC(=O)O)cc1`, for which the solubility (kinetic) came out at 49.5 µg/mL (≈ 136 µM). `O=C(Nc1ccon1)Nc1ccc(Cl)cc1Cl` registered a solubility (kinetic) of 1.6 µg/mL (≈ 5.88 µM).

Turning to `O=C(Nc1nccs1)C1(c2ccc(Cl)cc2)CC1`, the kinetic solubility was determined as 14.2 µg/mL (≈ 50.9 µM).

`CCOc1ccc(/C=C/c2[nH]c(=O)[nH]c(=O)c2[N+](=O)[O-])cc1` came in with a solubility (kinetic) of 13.2 µg/mL (≈ 43.5 µM).

`COc1ccc(Cl)cc1NC(=O)COC(=O)Cc1cc(OC)c(OC)c(OC)c1` registered a kinetic solubility of 46.6 µg/mL (≈ 110 µM). To `COc1ccccc1NC(=O)NCCc1c[nH]c2ccccc12` belongs 41.1 µg/mL (≈ 133 µM); to `CCCCC(CCC(=O)Nc1cccc([N+](=O)[O-])c1)C(=O)O` (centres undefined), 43.7 µg/mL (≈ 142 µM). The figure for `COc1ccc(NC(=O)C(=O)NCCCn2ccnc2)cc1` is 43.1 µg/mL (≈ 143 µM).

`N#Cc1c(N)n(-c2ccc(N)cc2)c2nc3ccccc3nc12`: the solubility (kinetic) worked out at 1.2 µg/mL (≈ 4 µM).

`COCCn1c(C)cc(C(=O)CSc2nc(C)c(C)c(C)n2)c1C` displayed a kinetic solubility of 45.3 µg/mL (≈ 130 µM). The figure for `COc1ccc(C(=O)n2c(N)nc3ccccc32)cc1OC.Cl` is 10.9 µg/mL. Compound `O=C1NC(=S)NC(=O)C1=Cc1ccc(OCC(=O)N2CCCC2)cc1` gave a kinetic solubility of 51.8 µg/mL (≈ 144 µM). Compared with the last compound, the solubility kinetic is about 4.8-fold higher.

`Cc1ccc(N2CC(C(=O)Nc3ccc4c(c3)OCO4)CC2=O)cc1C` (centres undefined) returned a solubility (kinetic) of 1.8 µg/mL (≈ 5.11 µM). The figure for `COCCn1cc(-c2csc(N)n2)c2ccccc21` is 35.1 µg/mL (≈ 128 µM); for `CN(Cc1ccccc1)C(=O)CN(C)S(=O)(=O)c1ccc(F)cc1` it is > 52.6 µg/mL; for `Cl.O=[N+]([O-])c1ccc(OCC(O)CNC2CCCC2)cc1` (centres undefined) it is > 47.5 µg/mL. As for `CC(NC(=O)COC(=O)c1ccc2c(c1)OCCO2)c1ccccc1` (centres undefined), the kinetic solubility came to 11.4 µg/mL (≈ 33.4 µM). To `C=CCNC(=O)CC1Nc2c3ccccc3nc(=S)n2C1=O` (centres undefined) belongs > 47.2 µg/mL; to `Cc1cc(C(=O)COC(=O)CC(NC(N)=O)c2ccc(Cl)cc2)c(C)n1C` (centres undefined), 29.2 µg/mL (≈ 74.5 µM); to `N#Cc1ccccc1COC(=O)c1cc(=O)c2ccccc2o1`, 16.7 µg/mL (≈ 54.7 µM). As to `CN(Cc1ccccc1)C(=O)COC(=O)c1cc(=O)c2ccccc2o1`, the solubility (kinetic) is > 52.7 µg/mL. The figure for `O=C(Cc1ccccc1Cl)NCc1cccnc1` is > 39.1 µg/mL; for `COc1ccc(N2CCN(C(=O)c3cc(C)oc3C)CC2)cc1` it is 42.2 µg/mL (≈ 134 µM); for `O=C1Cc2ccccc2C(=O)N1c1ccc(F)cc1Cl` it is 37.3 µg/mL (≈ 129 µM).

`Cc1ccc(S(=O)(=O)N2CCC(C(=O)NCc3ccccc3CN3CCCC3)CC2)cc1` yielded a kinetic solubility of 66.3 µg/mL (≈ 146 µM). Consider `CCN(CC)S(=O)(=O)c1ccc(N)cc1`, for which the kinetic solubility was > 34.2 µg/mL.

With `NC1=NC2(CCCC2)N=C(Nc2ccccc2)N1`, the kinetic solubility is > 36.5 µg/mL. The figure for `Cc1cccc(Nc2ccc3nonc3c2[N+](=O)[O-])c1C` is < 0.2 µg/mL; for `COc1cc(OC)c(C(=O)OCC(=O)NC2CCCCCCC2)cc1OC` it is > 56.9 µg/mL; for `CN1CCN(c2ccccc2NC(=O)c2ccc(F)cc2)CC1` it is > 47 µg/mL. The figure for `O=C(COc1ccc2c(c1)CCC2)Nc1ccccn1` is 14.2 µg/mL (≈ 52.9 µM). The figure for `Fc1ccc(C2c3cccn3CCN2C(=S)Nc2cccc(F)c2)cc1` (centres undefined) is 5.1 µg/mL (≈ 13.8 µM); for `CC(C)C(C)NC(=O)COc1ncnc2sccc12` (centres undefined) it is > 41.9 µg/mL; for `c1csc(-c2noc(CN3CCOCC3)n2)c1` it is 36.6 µg/mL (≈ 146 µM).

`Cc1ccc(NC(=S)N2CCN(c3ccccn3)CC2)cc1C` showed a kinetic solubility of 1.1 µg/mL (≈ 3.37 µM). Take `CCC(C(=O)O)N1C(=O)C2CCCCC2C1=O` (centres undefined): the kinetic solubility was > 35.9 µg/mL. The figure for `Nc1ccccc1SCCS(=O)(=O)c1ccc(Cl)cc1` is 2.2 µg/mL (≈ 6.71 µM); for `O=C(CCC(=O)N1CCN(S(=O)(=O)c2ccccc2)CC1)c1ccc(Br)cc1` it is 6.9 µg/mL (≈ 14.8 µM); for `O=C(Nc1cc(S(=O)(=O)Nc2ccccc2F)ccc1Cl)c1ccc(F)cc1F` it is 2.5 µg/mL (≈ 5.67 µM). For the compound `CN(C)c1ccc(C(=O)OCC(=O)N2CCCCCC2)cc1`, the kinetic solubility came to 33.9 µg/mL (≈ 111 µM). To `Cc1ccc(C(=O)N/C(=C\c2cn(C)c3ccccc23)C(=O)OCCN(C)C)cc1` belongs 58.9 µg/mL (≈ 145 µM); to `Cc1nc(SCC(=O)N2CCCC2=O)nc(C)c1C`, > 41.9 µg/mL. The figure for `Cc1c(Cl)cccc1NC(=O)NCc1ccc(C)n1C` is 5.3 µg/mL (≈ 18.2 µM); for `Cc1cc(NC(=O)c2cccc([N+](=O)[O-])c2)no1` it is < 0.2 µg/mL. The figure for `O=c1c2ccccc2ncn1-c1cccc([N+](=O)[O-])c1` is 3.8 µg/mL (≈ 14.2 µM); for `O=C(CSc1nc2ccccc2s1)c1ccc(O)cc1O` it is 3.3 µg/mL (≈ 10.4 µM). For `O=C(O)CSC(=S)N1CCCC1`, the kinetic solubility came out at 26.7 µg/mL (≈ 130 µM). For the compound `Cc1ncc(CSc2nccc(=O)[nH]2)c(CO)c1O`, the kinetic solubility was > 41.9 µg/mL. The figure for `COc1ccccc1C1CCN(Cc2cccc([N+](=O)[O-])c2)CC1` is 16.4 µg/mL (≈ 50.2 µM). The figure for `COc1cccc(CNC(=O)COC(=O)c2ccc(Cl)s2)c1` is 1.4 µg/mL (≈ 4.12 µM); for `COc1ccc(N2CCN(C(=O)[C@H](C)N3C(=O)C4CC=CCC4C3=O)CC2)cc1` (some centres undefined) it is > 59.6 µg/mL. For `Cc1ccnc(SCC(=O)NC2CC2)n1`, the kinetic solubility was > 33.5 µg/mL.

Compound `Cc1ccc(NC(=O)OCCNC(=O)c2ccncc2)cc1` yielded a kinetic solubility of 44.4 µg/mL (≈ 148 µM).

Take `COC(=O)c1sccc1NC(=O)COc1ccc(F)cc1Cl`: the kinetic solubility was < 0.7 µg/mL. In turn, `O=C(COc1ccccc1)Nc1ccc2oc(=O)ccc2c1` displayed a solubility (kinetic) of 9.8 µg/mL (≈ 33.2 µM). The figure for `O=C(Nc1nnc(-c2ccncc2)o1)c1ccccc1` is > 39.9 µg/mL.

As for `CC(=O)c1cccc(NC(=O)COc2cc(C)on2)c1`, the solubility (kinetic) is > 41.1 µg/mL. On to `O=C1C2CCCN2C(=O)N1CCCN1CCN(c2ccc([N+](=O)[O-])cc2)CC1` (centres undefined), for which the kinetic solubility worked out at 49.4 µg/mL (≈ 128 µM). `CSc1c(CC(=O)Nc2ccccc2)n(C)c2ccccc12` registered a kinetic solubility of 0.4 µg/mL (≈ 1.29 µM). To `Cc1cn2c(N)c(/C=C3\C=Nc4ccccc43)c(=O)nc2s1` belongs < 0.2 µg/mL; to `COC(=O)c1c(C)oc(C)c1S(=O)(=O)N1CCCC1`, 38.3 µg/mL (≈ 133 µM). The figure for `NC(=O)c1cc([N+](=O)[O-])cc2c1C=Cc1ccccc1O2` is 4.6 µg/mL (≈ 16.3 µM).

As for `Cc1cccc(CSCc2ccc(C(=O)NC3CCCC3)o2)c1`, the kinetic solubility was found to be 25.6 µg/mL (≈ 77.7 µM).

`COC(=O)Cn1cnc2c(oc3ccccc32)c1=O`: the kinetic solubility was > 38.7 µg/mL.

Take `CCc1ccccc1Cn1c(=O)oc2cccnc21`: the kinetic solubility is > 38.1 µg/mL. The figure for `NC(=O)c1cc2c(s1)-c1cc(Cl)ccc1SC2` is 0.8 µg/mL (≈ 2.84 µM); for `O=C(CNCc1cccc(Cl)c1)N1CCc2ccccc2C1` it is 38.9 µg/mL (≈ 124 µM); for `COc1ccc(CNC(=S)Nc2cccc(F)c2)cc1` it is 14.6 µg/mL (≈ 50.3 µM).

In the case of `COc1ccc(C)cc1NC(=O)CC(NC(C)=O)c1ccccc1` (centres undefined), the solubility (kinetic) is > 49 µg/mL. To `COc1ccccc1OCC(=O)Nc1nc2c(s1)CCCC2` belongs 8 µg/mL (≈ 25.1 µM); to `C=CCn1c(SCC(C)=O)nc2sc3c(c2c1=O)CCC3`, 4.6 µg/mL (≈ 14.4 µM). To `O=C(COC(=O)c1ccc([N+](=O)[O-])o1)NCc1ccccc1` belongs > 45.6 µg/mL. The figure for `COC(=O)c1sccc1NC(=S)N1C(C)CCCC1C` (centres undefined) is 20.3 µg/mL (≈ 65 µM).

Regarding `CC1CCCCC12NC(=O)N(CC(=O)N1CCN(c3ccccc3)CC1)C2=O` (centres undefined), the solubility (kinetic) is > 57.7 µg/mL. Compound `CC(C)(C)N(Cc1ccccc1)C(=O)COC(=O)c1ccc(N2CCCC2=O)cc1` had a kinetic solubility of 2.5 µg/mL (≈ 6.12 µM). The figure for `COCCNc1nc(N)c([N+](=O)[O-])c(Nc2ccc(F)cc2)n1` is 0.9 µg/mL (≈ 2.79 µM); for `O=C(COC(=O)/C=C/c1ccccc1Cl)Nc1cccnc1Cl` it is 2.9 µg/mL (≈ 8.26 µM). As for `COc1ccc(CNC(=O)COc2cc(O)c3c(c2)OC(C)(C)CC3=O)cc1`, the kinetic solubility was 43.5 µg/mL (≈ 113 µM). To `O=C(COC(=O)c1ccc(S(=O)(=O)N2CCOCC2)cc1)Nc1ccccc1OC(F)F` belongs 4.8 µg/mL (≈ 10.2 µM).

The compound `CCc1cccc(C)c1NC(=O)c1cccnc1` showed a kinetic solubility of 34.4 µg/mL (≈ 143 µM). The compound `C=CCNC(=S)N(Cc1ccccc1)Cc1ccc(F)cc1` showed a solubility (kinetic) of 14 µg/mL (≈ 44.5 µM).

Turning to `Cl.c1ccc2c(N3CCNCC3)cccc2c1`, the solubility (kinetic) is > 37.3 µg/mL. To `O=C(Nc1ccc(Cl)cc1)N1CCOCC1` belongs > 36.1 µg/mL.

Turning to `COc1ccc(N2CC(C(=O)NC3=NCCS3)CC2=O)cc1` (centres undefined), the kinetic solubility is > 47.9 µg/mL.

`CC(=O)Nc1cccc(Oc2nc(C(F)(F)F)nc3ccccc23)c1` gave a solubility (kinetic) of 14 µg/mL (≈ 40.3 µM). To `S=c1[nH]nc(Nc2ccccc2Cl)s1` belongs > 36.6 µg/mL; to `O=S(=O)(c1ccc(F)cc1)N1CCCC1c1cccnc1` (centres undefined), > 46 µg/mL. The figure for `CCn1ccnc1CNC(=O)c1cc(COc2ccc(F)cc2F)on1` is 49.3 µg/mL (≈ 136 µM). `COCCN(Cc1ccccc1)C(=S)Nc1ccc(Cl)cc1`: the solubility (kinetic) was determined as 8.6 µg/mL (≈ 25.7 µM). `COC(=O)c1ccccc1NC(=O)c1ccc2c(c1)OCCCO2` came in with a kinetic solubility of 4.1 µg/mL (≈ 12.5 µM). This solubility kinetic lies about 2.1-fold lower than the previous one.

Take `CC1=CC(C)(C)N2C(=O)C(=Nc3ccc(O)cc3)c3cccc1c32`: the solubility (kinetic) is 9.4 µg/mL (≈ 29.5 µM). This solubility kinetic lies about 2.3-fold higher than the previous one. To `CC(C)N1CCN(Cc2cc3ccccc3[nH]2)CC1CCO` (centres undefined) belongs > 45.2 µg/mL. On to `O=C(NC(=S)Nc1ccccc1Cl)c1ccco1`, for which the solubility (kinetic) is 2.5 µg/mL (≈ 8.91 µM). As to `Fc1ccc(Nc2c3c(nc4ccccc24)CCC3)cc1`, the solubility (kinetic) stood at 33.1 µg/mL (≈ 119 µM). This solubility kinetic is about 13-fold higher than that of the compound before. With `COc1ccc(NC(=S)Nc2ccccn2)cc1`, the kinetic solubility was found to be 2.8 µg/mL (≈ 10.8 µM). On to `Cc1onc(-c2c(F)cccc2Cl)c1C(=O)NCCN1CCNC1=O`, for which the kinetic solubility is > 55 µg/mL.

For the compound `COc1ccc(-c2c(C(F)(F)F)nn(C)c2NC(=O)c2ccco2)cc1`, the solubility (kinetic) was > 54.8 µg/mL. `CC(C)c1ccc(Nc2c([N+](=O)[O-])c(=O)n(C)c3ccccc23)cc1`: the solubility (kinetic) was < 0.2 µg/mL. The figure for `COC(=O)c1nc[nH]c1C(=O)OC` is > 27.6 µg/mL. Consider `Cc1cnc(C(=O)OCC(=O)c2ccc[nH]2)cn1`, for which the kinetic solubility was > 36.8 µg/mL. To `CCCCNc1c([N+](=O)[O-])ncn1C` belongs > 29.7 µg/mL; to `Cn1cc(C=O)c2cc(F)ccc21`, > 26.6 µg/mL; to `CC(C)(C)C(=O)NC(=S)Nc1ccc(C(F)(F)F)cc1`, 1.1 µg/mL (≈ 3.61 µM).
